Test results as given in ChEMBL document CHEMBL4346753, “Towards multi-target antidiabetic agents: Discovery of biphenyl-benzimidazole conjugates as AMPK activators” (Bioorg Med Chem Lett, 2019).
Active and inactive are the calls of the source. No cut-off for these calls is given here.

Tests used:
Rattus norvegicus = species: Rattus norvegicus; assay: Antagonist activity at AT1 receptor in rat portal vein assessed as reduction in […] contraction at 10 uM incubated for 1 min relative to control; set-up: scale not given: the % may be the effect or the level left
[1] = biological target: T1, AMP-activated protein kinase (AMPK) alpha-1/beta-1/gamma-1 (Homo sapiens) (UniProt P54619+Q9Y478+Q13131); assay: Activation of C-terminal His tagged human recombinant full length AMPK alpha1/beta1/gamma1 expressed in baculovirus infected Sf9 cells using SAMS peptide as substrate at 100 uM incubated for 60 mins by ADP-Glo luminescence assay relative to control
[2] = Inhibition of AGE formation assessed as reduction in bovin serum albumin glycation at 1 mM incubated for 24 hrs in presence of glucose by spectrophotometric analysis relative to control; format: functional
[3] = biological target: T1, AMP-activated protein kinase (AMPK) alpha-1/beta-1/gamma-1 (Homo sapiens); assay: Activation of C-terminal His tagged human recombinant full length AMPK alpha1/beta1/gamma1 expressed in baculovirus infected Sf9 cells assessed as enzyme activation using SAMS peptide as substrate at 100 uM incubated for 60 mins by ADP-Glo luminescence assay relative to control
[4] = biological target: T2, AMP-activated protein kinase (AMPK) alpha-1/beta-1/gamma-1 (Homo sapiens, UniProt P54619+Q13131+Q9Y478); assay: (§1) Activation of C-terminal His tagged human recombinant full length AMPK alpha1/beta1/gamma1 expressed in baculovirus infected Sf9 cells using SAMS peptide as substrate incubated for 60 mins by ADP-Glo luminescence assay
Peritoneal macrophage [5] = assay: Cytotoxicity against mouse peritoneal macrophages up to 50 uM incubated for 24 hrs by neutral red assay; format: cell-based
[6] = Solubility of the compound in PBS at pH 7.4; format: physicochemical
Peritoneal macrophage [7] = assay: Cytotoxicity against mouse peritoneal macrophages up to 50 uM incubated for 24 hrs by MTT assay; format: cell-based
Peritoneal macrophage [8] = assay: Anti-inflammatory activity in mouse peritoneal macrophages assessed as inhibition of LPS-induced NO production incubated for 22 hrs by Griess reagent based colorimetric assay; format: functional, cell-based
Platelet = assay: Antiplatelet activity in rabbit platelet rich plasma assessed as inhibition of ADP-induced platelet aggregation at 100 uM relative to control; format: functional, Oryctolagus cuniculus; set-up: scale not given: the % may be the effect or the level left
[9] = Ratio of antiplatelet activity for test compound to antiplatelet activity for acetylsalicylic acid in rabbit platelet rich plasma assessed as inhibition of ADP-induced platelet aggregation at 100 uM; format: functional, Oryctolagus cuniculus
[10] = Inhibition of AGE formation assessed as reduction in reduction in bovin serum albumin glycation at 1 mM incubated for 24 hrs in presence of glucose, Cu2+ by spectrophotometric analysis relative to control; format: functional
[11] = Inhibition of AGE formation assessed as reduction in reduction in bovin serum albumin glycation incubated for 24 hrs in presence of glucose by spectrophotometric analysis; format: functional
[12] = Inhibition of AGE formation assessed as reduction in reduction in bovin serum albumin glycation incubated for 24 hrs in presence of glucose, Cu2+ by spectrophotometric analysis; format: functional
[13] = biological target: AMP-activated protein kinase, AMPK; assay: Activation of recombinant human AMPK expressed in Sf9 cells using SAMS peptide as substrate preincubated for 30 mins followed by substrate addition and measured after 60 mins by fluorescence based assay
[14] = Activation of recombinant rhesus monkey AMPK expressed in Sf9 cells using SAMS peptide as substrate preincubated for 30 mins followed by substrate addition and measured after 60 mins by fluorescence based assay; set-up: species or system Macaca mulatta
[15] = biological target: 5'-AMP-activated protein kinase; assay: Activation of recombinant mouse AMPK expressed in Sf9 cells using SAMS peptide as substrate preincubated for 30 mins followed by substrate addition and measured after 60 mins by fluorescence based assay
[16] = biological target: T2, AMP-activated protein kinase (AMPK) alpha-1/beta-1/gamma-1; assay: Activation of human AMPK alpha1/beta1/gamma1 expressed in baculovirus/Sf9 cells using SAMS peptide as substrate incubated for 15 mins by in presence of 33P-ATP by liquid scintillation counting method
[17] = Binding affinity to glyoxal assessed as reduction in glyoxal by GirardT reagent based spectrophotometric method
[18] = Ratio of inhibition of formation in AGE for test compound to inhibition of formation in AGE for aminoguanidine at 1 mM incubated for 24 hrs in presence of glucose by spectrophotometric analysis
[19] = biological target: T1, AMP-activated protein kinase (AMPK) alpha-1/beta-1/gamma-1 (Homo sapiens); assay: as §1

T1 sequence (P54619 whole entry): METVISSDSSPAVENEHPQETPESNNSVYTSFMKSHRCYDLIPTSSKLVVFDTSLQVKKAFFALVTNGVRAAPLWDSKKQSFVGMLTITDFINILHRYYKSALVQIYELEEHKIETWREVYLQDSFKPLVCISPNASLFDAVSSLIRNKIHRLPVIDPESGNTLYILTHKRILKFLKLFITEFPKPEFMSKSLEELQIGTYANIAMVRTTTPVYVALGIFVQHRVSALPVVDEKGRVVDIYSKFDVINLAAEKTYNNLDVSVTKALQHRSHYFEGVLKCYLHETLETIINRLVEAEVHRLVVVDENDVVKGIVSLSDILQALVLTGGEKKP
T1 sequence (Q13131 whole entry partner): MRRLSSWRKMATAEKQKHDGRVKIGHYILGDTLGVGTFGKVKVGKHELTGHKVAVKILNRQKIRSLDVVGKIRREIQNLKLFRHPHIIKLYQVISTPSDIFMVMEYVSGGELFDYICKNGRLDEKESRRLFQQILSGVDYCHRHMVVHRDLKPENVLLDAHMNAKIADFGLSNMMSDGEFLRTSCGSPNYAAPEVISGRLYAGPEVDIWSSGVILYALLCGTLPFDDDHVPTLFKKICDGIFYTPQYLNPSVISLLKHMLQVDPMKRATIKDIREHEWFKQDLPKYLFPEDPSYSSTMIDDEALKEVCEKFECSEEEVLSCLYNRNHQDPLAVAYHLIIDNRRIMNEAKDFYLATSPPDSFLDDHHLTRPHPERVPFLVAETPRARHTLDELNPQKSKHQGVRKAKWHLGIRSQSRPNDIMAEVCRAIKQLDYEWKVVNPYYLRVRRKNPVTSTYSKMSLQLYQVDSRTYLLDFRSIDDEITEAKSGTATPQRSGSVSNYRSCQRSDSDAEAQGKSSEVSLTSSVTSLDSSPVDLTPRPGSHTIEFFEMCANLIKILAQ
T1 sequence (Q9Y478 2-270 partner limits assumed): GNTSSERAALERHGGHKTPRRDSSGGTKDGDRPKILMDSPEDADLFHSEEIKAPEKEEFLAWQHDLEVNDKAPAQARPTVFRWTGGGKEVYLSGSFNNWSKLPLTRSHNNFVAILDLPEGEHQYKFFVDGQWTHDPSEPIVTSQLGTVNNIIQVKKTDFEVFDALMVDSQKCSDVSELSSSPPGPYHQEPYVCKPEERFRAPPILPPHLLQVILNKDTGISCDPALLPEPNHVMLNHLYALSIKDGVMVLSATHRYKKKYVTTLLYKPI
T2 sequence (P54619 whole entry): as the sequence (P54619 whole entry) above
T2 sequence (Q9Y478 whole entry): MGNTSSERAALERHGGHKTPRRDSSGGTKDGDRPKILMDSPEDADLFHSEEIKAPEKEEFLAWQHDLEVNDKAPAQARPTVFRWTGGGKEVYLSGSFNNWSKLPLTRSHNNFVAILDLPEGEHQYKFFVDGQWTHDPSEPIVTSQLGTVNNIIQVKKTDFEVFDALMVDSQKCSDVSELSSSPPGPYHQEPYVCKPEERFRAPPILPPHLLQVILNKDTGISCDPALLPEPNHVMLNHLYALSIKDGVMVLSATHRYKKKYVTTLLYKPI
T2 sequence (Q13131 whole entry): as the sequence (Q13131 whole entry partner) above

Structure (SMILES) | Activity (Rattus norvegicus) [%] | Activity [1] [%] | inhibition [2] [%] | Activity (Platelet) [%] | Ratio [9] | also measured
COC(=O)c1ccccc1-c1ccc(CN2C3=NCCCN3c3ccccc32)cc1 | 5.9 | 21.7 | 14.9 | – | – | –
Br.N#Cc1ccccc1-c1ccc(CN2C3=NCCCCN3c3ccccc32)cc1 | 0 | 293 | – | – | – | fold change (FC) [3]: 4; EC50 ([4]; read-out: EC50): 0.44 µM; Activity (Peritoneal macrophage [5]): Non-Toxic; solubility [6]: > 500 µM; Activity (Peritoneal macrophage [7]): Non-Toxic
C[C@@H]1C[C@H]2[C@@H]3CCC4=CC(=O)C=C[C@]4(C)[C@@]3(F)[C@@H](O)C[C@]2(C)[C@@]1(O)C(=O)CO [DEXAMETHASONE] | – | – | – | – | – | IC50 (Peritoneal macrophage [8]): 0.15 µM
O=C(O)c1ccccc1-c1ccc(CN2C3=NCCCN3c3ccccc32)cc1 | 7.5 | -16.2 | 38.5 | – | – | –
O=C(O)c1ccccc1-c1ccc(CN2C3=NCCN3c3ccccc32)cc1 | -1.7 | 6.9 | 7.7 | – | – | –
Br.c1ccc(-c2ccc(CN3C4=NCCCCN4c4ccccc43)cc2)cc1 | 13.5 | 12.3 | – | 98.7 | 2.1 - 3.6 | –
Br.N#Cc1ccccc1-c1ccc(CN2C3=NCCN3c3ccccc32)cc1 | 21.9 | 163 | 8.6 | 57.1 | 2.1 - 3.6 | IC50 (Peritoneal macrophage [8]): 5.32 µM; fold change (FC) [3]: 1.56; EC50 ([4]; read-out: EC50): 109 µM; EC50 ([4]; read-out: pEC50 (converted)): 25.1 µM; solubility [6]: > 500 µM
Br.c1ccc(-c2ccc(CN3C4=NCCCN4c4ccccc43)cc2)cc1 | 14.6 | 16 | 9.9 | 95.2 | 2.1 - 3.6 | –
CCCCc1nc(Cl)c(CO)n1Cc1ccc(-c2ccccc2-c2nnn[nH]2)cc1 [LOSARTAN] | 99 | – | 51.4 | – | – | inhibition [10]: 51.4%; IC50 [11]: > 1000 µM; IC50 ([12]; read-out: IC50): 782 µM
COC(=O)c1ccccc1-c1ccc(CN2C3=NCCN3c3ccccc32)cc1 | -5.7 | 3.5 | 0.4 | – | – | –
Br.COC(=O)c1ccccc1-c1ccc(CN2C3=NCCCCN3c3ccccc32)cc1 | 33.3 | -11.3 | 17.9 | 97.4 | 2.1 - 3.6 | –
O[C@@H]1CO[C@H]2[C@@H]1OC[C@H]2Oc1nc2nc(-c3ccc(-c4ccccc4)cc3)c(Cl)cc2[nH]1 | – | – | – | – | – | EC50 [13]: 0.001 to 0.06 µM; EC50 [14]: 0.001 to 0.06 µM; EC50 [15]: 0.001 to 0.06 µM
Br.N#Cc1ccccc1-c1ccc(CN2C3=NCCCN3c3ccccc32)cc1 | 40.4 | 197 | -9.2 | – | – | IC50 (Peritoneal macrophage [8]): 4.96 µM; fold change (FC) [3]: 2.81; EC50 ([4]; read-out: EC50): 0.34 µM; Activity (Peritoneal macrophage [5]): Non-Toxic; solubility [6]: > 500 µM; Activity (Peritoneal macrophage [7]): Non-Toxic
O=C(O)c1ccccc1-c1ccc(CN2C3=NCCCCN3c3ccccc32)cc1 | 20 | -36.4 | 30.8 | – | – | –
N#Cc1c(O)c2c(-c3ccc(-c4ccccc4O)cc3)csc2[nH]c1=O | – | – | – | – | – | EC50 [16]: 0.8 µM
Br.c1ccc(-c2ccc(CN3C4=NCCN4c4ccccc43)cc2)cc1 | 5.2 | 54.2 | 22.5 | 89.2 | 2.1 - 3.6 | –
Br.O=C(O)c1ccc(CN2C3=NCCN3c3ccccc32)cc1 | 11.1 | 3.7 | 19.2 | 57 | 2.1 - 3.6 | –
N=C(N)NN [PIMAGEDINE] | – | – | 57.8 | – | – | IC50 [11]: 765 µM; Activity [17]: Active; IC50 [12]: Not Active
Br.CCOC(=O)c1ccc(CN2C3=NCCN3c3ccccc32)cc1 | 5.6 | 0.6 | 17.5 | 76.3 | 2.1 - 3.6 | –
Cc1ccc(OCCSc2ncccn2)c(Br)c1 | – | 157 | – | – | – | EC50 ([4]; read-out: EC50): 0.55 µM
Br.N#Cc1ccc(C(=O)CN2C3=NCCN3c3ccccc32)cc1 | 0 | 25.5 | 72.1 | 6.6 | – | inhibition [10]: 25.4%; IC50 [11]: 422 µM; fold change (FC) [3]: inactive; Ratio [18]: 1.8; pEC50 [19]: inactive; solubility [6]: > 500 µM; Activity [17]: Active; IC50 ([12]; read-out: IC50): > 1000 µM
CC(=O)Oc1ccccc1C(=O)O [ASPIRIN] | – | – | – | 27.8 | – | –
